Measurements from US10351570B2, “Compounds and uses thereof” (Kala Pharmaceuticals, Inc., priority 2013, dated 2019).
Where two headings read alike, the source gives them in different places.

How the values were obtained:
[1] = Nanoparticle mobility in human cervicovaginal mucus (dark field microscopy); settings: low pH of CVM
Method: In order to determine whether the generated nanoparticles have reduced interactions with mucins and are therefore able to move within mucus without becoming trapped, particles were incubated with human cervicovaginal mucus (CVM) and observed via dark field microscopy. In a typical experiment, 51 μL of the nanoparticle suspension was added to 20 μl of CVM. Observations were made in a minimum of three distinct and randomly selected areas of the CVM sample. Control particles with known behavior were used to qualify the CVM sample as appropriate for the assay.

[2] = PK study after topical ocular administration of compound I-2 solution; type: in vivo, Dutch-belted rabbits; settings: Dutch-belted, rabbit, topical or ocular, 50 μL of 0.5% solution, topical 0.5% solution, 50 μL BID 5 days; for AUC(0-t): read-out: AUC0-12 hr
Method: (§1) In this example, the formulation consisted of 0.5% I-2, 0.5% F127, in 20 mM citrate buffer pH 6.0 and NaCl (added to produce isotonic formulation).
(§2) The portion of the retina and choroid collected and analyzed was an 8-mm round punch where the macula is located in humans.

[3] = Physical and chemical stability of I-2 solutions at room temperature; type: physicochemical; settings: F127 (0.5%), 20 mM Tris (pH 8); precipitation
Method: Solutions of I-2 were formulated with F127 or Tween 80, and under a range of pH values. Briefly, I-2 was first completely solubilized using an acidic solution (0.1 N HCl) at a high concentration of […]. The final formulation was diluted to a solution consisting of 0.5% (w/v) I-2 into buffered solution containing F127 or Tween 80 as described in Table 5. Following dilution, the pH of the formulations was measured using pH indicator strips (PEHANON) and confirmed to be within expected range (±0.5 units of target pH).
Physical and chemical stability of the solutions at room temperature (20-25° C.) were assessed after 7-10 days (tfinal). Physical instability in a solution can manifest as the precipitation and sedimentation of the drug of interest and excipients over time. To assess physical stability, the formulations at tfinal were first filtered through a 300 kDa modified polyethersulfone filter membrane (Nanosep) to remove any precipitate in the solution. The concentration of I-2 in the filtrates was then measured and compared to that at t=0. The purity of I-2 in the unfiltered solution was also evaluated at tfinal, to further confirm chemical stability. This parameter is defined by the area under the signal peak that is attributed to compound I-2 as a percentage of all peaks reported by in the sample by HPLC (% peak area).

[4] = Draize-Ocular Irritation assessment; type: in vivo, Dutch-belted rabbits; settings: topical 0.5% solution, 50 μL BID 5 days
Method: as §1, §2

[5] = Milling with Pluronic F127 into mucus penetrating particles; particle size by dynamic light scattering; type: physicochemical; settings: formulated as MPP, milled with Pluronic F127 in DPBS; for Particle Size: dynamic light scattering
From the text: Compounds of the present invention synthesized in accordance with the preceding Examples were formulated as mucus penetrating particles (MPP). Specifically, compounds I-2, compound I-5, and compound I-6 were each milled in the presence of Pluronic F127 (F127) to determine whether F127 1) aids particle size reduction to several hundreds of nanometers and 2) physically (non-covalently) coats the surface of generated nanoparticles with a mucoinert coating that would minimize particle interactions with mucus constituents and prevent mucus adhesion.
A milling procedure was employed in which an aqueous dispersion containing coarse drug particles and Pluronic F127 (F127) was milled with grinding medium until particle size was reduced below 400 nm as measured by dynamic light scattering. Table 4 lists the size of particles and polydispersity index (a measure of the width of the particle size distribution) generated using this technique. In this example suspensions were buffered using DPBS (Dulbecco's Phosphate-Buffered Saline) which yields a suspension that is both isotonic and has a physiologically relevant pH.

Compound | solubility in CVM [1] | Cmax ([2]; Choroid (8-mm punch)) [nM] | Tmax ([2]; Choroid (8-mm punch)) [h] | AUC(0-t) ([2]; Choroid (8-mm punch)) [µM·h] | Cmax ([2]; Plasma) [nM] | Tmax ([2]; Plasma) [h] | AUC(0-t) ([2]; Plasma) [µM·h] | half-life ([2]; Plasma, read-out: t½ (converted)) [h] | Cmax ([2]; Retina (8-mm punch)) [nM] | Tmax ([2]; Retina (8-mm punch)) [h] | AUC(0-t) ([2]; Retina (8-mm punch)) [µM·h] | physical stability of solution [3] | Draize-Ocular Irritation [4] | Polydispersity Index (PDI) [5] | Particle Size [5] [nm]
Cc1cc(C(=O)Nc2cc(Oc3ccc4nc(NC(=O)CN5CC[C@H](N(C)C)C5)cn4n3)ccc2C)n(C)n1 [Compound I-2] | soluble | 1790 | 2 | 12.5 | 5.96 | 0.5 | 0.0256 | 3.63 | 218 | 0.5 | 2.06 | major physical instability | no irritation |  | 
Cc1cc(C(=O)Nc2cc(Oc3ccc4nc(NC(=O)NC5COC5)cn4n3)ccc2C)n(C)n1 [Compound I-5] |  |  |  |  |  |  |  |  |  |  |  |  |  | 0.160 | 276
Cc1ccc(Oc2ccc3nc(NC(=O)CC4COC4)cn3n2)cc1NC(=O)c1cccc(F)c1 [Compound I-6] |  |  |  |  |  |  |  |  |  |  |  |  |  | 0.206 | 245
